In patent US6191144A, “Method of using angiotensin converting enzyme inhibitor to stimulate angiogenesis” (priority 1999, dated 2001):
Entries after “also recorded” stand apart in the source; their conditions may differ.

Tests used:
B2-receptor = B2-receptor antagonist; cited from earlier work
[1] = test system: rabbit ischemic hindlimb model; test: Capillary density in ischemic hindlimb muscles; conditions: D40; medial thigh muscles of ischemic limb
[2] = test system: Angiotensin Converting Enzyme; test: Tissue ACE activity in thigh muscle homogenate of treated rabbits; assay type: in vivo, New Zealand White rabbits; conditions: for mean tissue ACE activity in thigh muscles: additional rabbits treated D10 up to D35; for residual tissue ACE activity, % of non-treated tissue activity: thigh muscle, treated D10 up to D35
Text: Then, they were sacrificed, and muscles harvested for tissue in order to measure tissue ACE activity.
In order to determine the tissue ACE activity, muscles from the additional group were harvested, weighed, and homogenized in PBS. The obtained solution was used as a substrate for the ACE determination kit (Sigma, St. Louis, Mo.), and the result, divided by sample weight, is expressed as international units per gram of tissue (Ul/g).

[3] = test system: Angiotensin Converting Enzyme; test: Serum ACE activity (Sigma kit, FAPGG substrate) in treated ischemic rabbits; assay type: in vivo, New Zealand White rabbits; conditions: for residual ACE activity in serum (D14 serum activity/D10 serum activity): D14, 24 hours after injection, daily s.c. captopril 25 mg or quinaprilat 2 mg; for serum ACE activity as percentage of basal value: D40, after 5 days of discontinuation of injections; for serum ACE inhibition at any time: daily s.c. treatment, inferred from 24 hour trough at D14
Description: The serum ACE activity in the blood samples obtained from ear vein was determined using a kit obtained from Sigma (St. Louis, Mo.). The procedure used is a spectrophotometric method utilizing the synthetic tripeptide substrate N-[3-(2-furyl)acryloyl]-L-phenylalanylglycylglycine (FAPGG). ACE catalyzes hydrolysis of FAPGG to furylacryloylphenylalanine (FAP) and glycylglycine, which results in a decrease in absorbance at a wavelength of 340 nm. The ACE activity in the sample was determined by comparing the sample reaction rate to that obtained with an ACE calibrator.
The efficiency of the treatment is calculated as the percentage of the D10 serum activity according to the ratio: D14 serum activity/D10 serum activity.
For the latter drug, tablets were daily dissolved in saline serum and the resulting suspension was injected. Acetylcholine chloride, serotonin […] sulfate, and sodium nitroprusside were all purchased from Sigma Chemical Co., St. Louis, Mo.

[4] = test system: rabbit ischemic hindlimb model; test: Angiographic score of collateral development; conditions: D40; medial thigh
coronary microvessels = conditions: Greiss reaction (Circulation, 95:176-182); cited from earlier work
[5] = test system: rabbit ischemic hindlimb model; test: Lower-limb blood pressure ratio (ischemic/normal limb); assay type: in vivo, New Zealand White rabbits; conditions: D40
Description: (§1) The animal model was a previously described rabbit ischemic hindlimb model (J. Clin. Invest. 93:662-670). […] A longitudinal incision was then performed, extending from the inguinal ligament to a point just proximal to the patella. Through this incision, the femoral artery and each of its branches were dissected free along its entire length. After dissecting the popliteal and saphenous arteries distally, the external iliac artery and all of the above arteries were ligated with 4.0 silk (Ethicon, Sommerville, N.J.). Finally, the femoral artery was completely excised from its proximal origin as a branch of the external iliac artery, to the point distally where it bifurcates to form the saphenous and popliteal arteries. Following excision of the femoral artery, retrograde propagation of thrombus leads to occlusion of the external iliac artery. Blood flow to the ischemic limb consequently becomes dependent upon collateral vessels issuing from the internal iliac artery.
Animals with limb ischemia were randomly divided into 4 groups. […] The ischemic control group consisted of 6 rabbits receiving no medication of any kind.

[6] = test system: rabbit ischemic hindlimb model; conditions: D40 vs control
Description: Angiogenesis following resection of femoral artery was assessed at Day 10 (D10) and D40 post-operatively on functional (blood pressure ratio of ischemic to healthy limb, vasoreactivity and resistance) and morphological (angiography and capillary density) criteria.
as §1, with “Blood flow to the ischemic limb consequently becomes dependent upon collateral vessels issuing from the internal iliac artery.” left out
The four groups were investigated at D10 and D40 post-operatively at which time lower limb blood pressure, vasomotor reactivity, and angiographic score were evaluated. […]

[7] = test system: rabbit ischemic hindlimb model; test: Vascular resistance ratio at internal iliac artery after vasoactive agents; conditions: D40
[8] = test system: rabbit ischemic hindlimb model; test: Vasomotor reactivity: blood flow ratio in internal iliac artery after vasoactive agents; assay type: in vivo, New Zealand White rabbits; conditions: D40; for blood flow ratio (stimulated flow/basal flow), acetylcholine: acetylcholine 1.5 μg/min/kg intra-arterial; for blood flow ratio (stimulated flow/basal flow), nitroprusside: nitroprusside 1.5 μg/min/kg intra-arterial; for blood flow ratio (stimulated flow/basal flow), serotonin: serotonin 1.5 μg/min/kg intra-arterial
Description: After measurement of lower limb blood pressure, a 3 Fr., end-hole infusion catheter (Tracker-i 8 TM, Target Therapeutics, San Jose, Calif.) was inserted into the left common carotid artery and advanced to the abdominal aorta. A 0.018 inch Doppler guidewire (Cardiometrics, Inc., Mountain View, Calif.) was advanced through the 3 Fr. infusion to the proximal segment of the internal iliac artery supplying the ischemic limb.
Vascular reactivity was assessed in this study measuring the variation of blood flow induced by vasodilators in the internal iliac artery of the ischemic limb. Blood flow was calculated from the Doppler measurements, using the formula QD =(πd^2 /4)(0.5×APV), where QD =Doppler-derived time average flow, d=vessel diameter, and APV=time average of the spectral peak velocity (Am. J Physiol., 1994;267:H1263-H1271). The mean velocity was estimated as 0.5×APV by assuming a time-averaged parabolic velocity profile across the vessel. […] The angiographic diameter of main collateral artery was determined using an automated edge-detection system that has been previously validated in vivo (Am. J Physiol., 1994;267:H1263-H1271). […] Center-lines were traced manually for a 10-mm long segment beginning immediately distal to the tip of the Doppler wire. The contours were subsequently detected automatically on the basis of the weighted sum of first and second derivative functions applied to the digitized brightness information. The vascular diameter was then measured at the site of the Doppler sample volume, i.e., 5 mm distal to the wire tip (Am. J Physiol., 1994;267:H1263-H1271). Cross-sectional area was calculated assuming a circular lumen.
The results of calculation for blood flow are expressed as the ratio of blood flow after vasodilator injection to basal blood flow, measured just before the injection.

[9] = Day 10 (basal value, before treatment)
[10] = Day 40 (5 days after discontinuation)

Compound | capillary density [1] | mean tissue ACE activity in thigh muscles [2] [Ul/g] | residual tissue ACE activity, % of non-treated tissue activity [2] [%] | residual ACE activity in serum (D14 serum activity/D10 serum activity) [3] [%] | serum ACE activity as percentage of basal value [3] [%] | Serum ACE Activity [3, 9] [U/L] | Serum ACE Activity ([3]; Day 14 (efficiency value)) [U/L] | Serum ACE Activity [3, 10] [U/L] | serum ACE inhibition at any time [3] | angiographic score [4] [%] | NO accumulation (coronary microvessels) | ischemic/normal calf systolic blood pressure ratio [5] | stimulation of angiogenesis (functional and morphological criteria) [6] | vascular resistance ratio (after injection/basal), acetylcholine [7] | vascular resistance ratio (after injection/basal), nitroprusside [7] | vascular resistance ratio (after injection/basal), serotonin [7] | blood flow ratio (stimulated flow/basal flow), acetylcholine [8] | blood flow ratio (stimulated flow/basal flow), nitroprusside [8] | blood flow ratio (stimulated flow/basal flow), serotonin [8] | other results
NC(N)=NCCC[C@@H](N)C(=O)N[C@@H](CCCN=C(N)N)C(=O)N1CCC[C@H]1C(=O)N1C[C@H](O)C[C@H]1C(=O)NCC(=O)N[C@@H](Cc1cccs1)C(=O)N[C@@H](CO)C(=O)N1Cc2ccccc2C[C@@H]1C(=O)N1[C@H](C(=O)N[C@@H](CCCN=C(N)N)C(=O)O)C[C@@H]2CCCC[C@@H]21 [Icatibant] |  |  |  |  |  |  |  |  |  |  |  |  |  |  |  |  |  |  |  | effect on cardiac capillary length density induced by ACE inhibition (B2-receptor): inhibited
C[C@H](CS)C(=O)N1CCC[C@H]1C(=O)O [captopril] | 147.2±11.9 /mm^2 | 7.65±1.69 | 61 | 42.54±0.03 | 92.87±0.04 | 55.94 ± 0.75 | 23.92 ± 0.60 | 51.80 ± 0.80 | higher than 50% | 35.03±0.02 | promotion of NO accumulation |  |  |  |  |  |  |  |  | 
C[C@H](N[C@@H](CCc1ccccc1)C(=O)O)C(=O)N1CCC[C@H]1C(=O)O [enalaprilat] |  |  |  |  |  |  |  |  |  |  | promotion of NO accumulation |  |  |  |  |  |  |  |  | 
C[C@H](N[C@@H](CCc1ccccc1)C(=O)O)C(=O)N1Cc2ccccc2C[C@H]1C(=O)O [quinaprilat] | 214.0±6.4 /mm^2 | 1.69±0.70 | 13 | 41.53±0.02 | 80.71±0.08 | 59.50 ± 1.38 | 24.32 ± 0.46 | 46.40 ± 0.98 | higher than 50% | 51.19 |  | 0.86±0.03 | more developed angiogenesis; also recorded: improvement; also recorded: stimulates angiogenesis in vivo | 0.32±0.03 | 0.28±0.02 | 0.94±0.06 | 3.06±0.25 | 2.94±0.24 | 1.17±0.08 | Body Weight (Body weight (Table 1); Day 10): 4.19 ± 0.10 kg; Body Weight (Body weight (Table 1); Day 40): 4.54 ± 0.20 kg
CCOC(=O)[C@H](CCc1ccccc1)N[C@@H](C)C(=O)N1[C@H](C(=O)O)C[C@@H]2CCC[C@@H]21 [ramipril] |  |  |  |  |  |  |  |  |  |  | promotion of NO accumulation |  |  |  |  |  |  |  |  | 
VEGF | 228.8±9.6 /mm^2 |  |  |  |  |  |  |  |  | 50.88±0.04 |  | 0.74±0.03 | more developed angiogenesis | 0.35±0.03 | 0.29±0.04 | 0.77±0.04 | 2.72±0.22 | 2.66±0.35 | 1.19±0.09 | 
